Assay results: patent US20220153744A1, “SOLID STATE FORMS OF ACALABRUTINIB” (ASSIA CHEMICAL INDUSTRIES LTD., priority 2019, published 2022)

How the values were obtained:
Type in all cases: physicochemical
[1] = Polymorphic stability on storage at defined temperature and relative humidity
Excerpt: (§1) Crystalline Form ACB3 of Acalabrutinib may have advantageous properties as described herein above.

[2] = Polymorphic stability towards grinding
Excerpt: as §1

[3] = Polymorphic stability on heating; details: heated to about 100° C. over about 30 minutes
Excerpt: as §1

- polymorphic stability on storage ([1]; 40° C., RH of about 75%, at least 1 month): polymorphically stable
- polymorphic stability on storage ([1]; room temperature, RH of about 60%, at least 1 month): polymorphically stable
- polymorphic stability on storage ([1]; room temperature, RH of about 80%, at least 7 days): polymorphically stable
- polymorphic stability towards solvent grinding ([2]; solvent grinding): polymorphically stable
- polymorphic stability towards strong dry grinding ([2]; strong dry grinding): polymorphically stable
- polymorphic stability when heated [3]: polymorphically stable
Compound: CC#CC(=O)N1CCC[C@H]1c1nc(-c2ccc(C(=O)Nc3ccccn3)cc2)c2c(N)nccn12 [Form ACB3, 4-{8-Amino-3-[(2S)-1-(2-butynoyl)-2-pyrrolidinyl]imidazo[1,5-a]pyrazin-1-yl}-N-(2-pyridinyl)benzamide]
